From ChEMBL document CHEMBL1921687, “(2-Benzyl-2,3,4,5-tetrahydro-1H-pyrido[4,3-b]indol-8-yl)-acetic acid: an aldose reductase inhibitor and antioxidant of zwitterionic nature” (Bioorg Med Chem, 2011)
pIC50: −log10 of the molar value. Values belong to the molecule of their own block, whether it stands above or below them. Activity calls are given as the source filed them. The calls are words filed in the database; no cut-off is given here.

Experiments:
Erythrocyte [1] = test: Antioxidant activity in Wistar rat erythrocytes assessed as prolongation of initial inhibition period-lag phase of t-BuOOH-induced hemolysis at 10 mM preincubated for 30 mins before induction measured up to 5 hrs by spectrophotometry; type: functional, cell-based
Erythrocyte [2] = test: Antioxidant activity in Wistar rat erythrocytes assessed as prolongation of initial inhibition period-lag phase of AAPH-induced hemolysis at 100 uM preincubated for 30 mins before induction measured up to 5 hrs by spectrophotometry; type: functional, cell-based
Erythrocyte [3] = test: Antioxidant activity in Wistar rat erythrocytes assessed as prolongation of initial inhibition period-lag phase of t-BuOOH-induced hemolysis at 100 uM treated 30 mins after induction measured up to 5 hrs by spectrophotometry; type: functional, cell-based
Rattus norvegicus [4] = test: Inhibition of sorbitol accumulation in streptozotocin-induced diabetic rat erythrocytes at 25 mg/kg intra-gastrically bid for 4 days followed by single dose on 5th day measured after 3 hrs final dose by resazurin reduction assay; type: functional, organism-based; set-up: dose 25 mg/kg
Rattus norvegicus [5] = test: Antidiabetic activity in streptozotocin-induced diabetic rat assessed as reduction in blood glucose level at 25 mg/kg intra-gastrically administered bid for 4 days followed by single dose on 5th day measured after 3 hrs final dose; type: functional, organism-based; set-up: dose 25 mg/kg
Erythrocyte [6] = test: Antioxidant activity in Wistar rat erythrocytes assessed as prolongation of initial inhibition period-lag phase of t-BuOOH-induced hemolysis at 2.5 uM preincubated for 30 mins before induction measured up to 5 hrs by spectrophotometry; type: functional, cell-based
[7] = target: Aldo-keto reductase family 1 member B1 (Homo sapiens, UniProt P15121); test: Inhibition of aldose reductase
Erythrocyte [8] = test: Antioxidant activity in Wistar rat erythrocytes assessed as prolongation of initial inhibition period-lag phase of t-BuOOH-induced hemolysis at 100 uM preincubated for 30 mins before induction measured up to 5 hrs by spectrophotometry; type: functional, cell-based

Structure (SMILES): NCCC(=O)N[C@@H](Cc1c[nH]cn1)C(=O)O
Activity (Erythrocyte [1]): Active

Structure (SMILES): Cc1c(C)c2c(c(C)c1O)CCC(C)(C(=O)O)O2 (centres undefined)
Activity (Erythrocyte [2]): Active

pIC50 [7]: 4.74
Structure (SMILES): O=C(O)Cc1ccc2[nH]c3c(c2c1)CN(Cc1ccccc1)CC3
Activity (Erythrocyte [2]): Active
Activity (Erythrocyte [3]): inactive
inhibition (Rattus norvegicus [4]): Active
Activity (Rattus norvegicus [5]): inactive
Activity (Erythrocyte [6]): Active

Structure (SMILES): COc1ccc2[nH]cc(CCNC(C)=O)c2c1
Activity (Erythrocyte [8]): inactive
